Patent US11414454B2, “Compositions, methods, and systems for affinity-based protein identification and purification” (Auctus Biologies, Inc., priority 2017, dated 2022)
No end group written: not given here.

How the values were obtained:
[1] = target: RPtag (large); assay: Buffer additive screen, Kd by fluorescence anisotropy; assay type: binding, Thermoanaerobacter tengcongensis
Experimental: To determine reagent compatibility with the disclosed system, an additive screen was performed, wherein the Kd between RPtag (large) and 3 RPtag (small) peptides—native, Nd8Cd4, and Nd2p5ae18a—were tested in the presence of several common buffer additives (Table 3).

[2] = test system: RPtag large with rhodamine labeled PDGF-β n-terminal peptide; assay: Competition of RPtag large / PDGF-β n-terminal peptide binding by unlabeled peptide; details: 1 uM RPtag large, 1 uM labeled PDGF-β peptide, unlabeled competitor
Experimental: An initial Kd was measured between RPtag(large) and the PDGF-β N-terminal peptide (FIG. 16). […] Next, competition experiments were performed using the mutant RPtag(small) peptide Nd2,P5A,E18A.
The direct binding (left) and competition studies (right) presented in FIG. 16 were performed as follows. The indicated concentration of RPtag large was incubated with 20 nM rhodamine labeled PDGF-β n-terminal peptide for 1 h at room temperature, and the fluorescence anisotropy was measured. The curves were fit with the equation f=y0+(ymax−y0)*(Ptot+x+Kd−sqrt((Ptot+x+Kd)^2−4*Ptot*x))/(2*Ptot), where y0 is the baseline anisotropy, ymax is the maximum anisotropy, Ptot is the fixed concentration of labeled peptide used, x is the variable concentration of protein used, and Kd is the measured Kd. […] The curves were fit empirically to a 4 parameter logistic regression. In both cases, the buffer was 50 mM Tris pH 8.0, 0.005% Tween20. Curves were fit in […] each, and the data was averaged for display. Points are mean±SEM (n=3).

[3] = test system: RPtag (large) resin; assay: Affinity-based precipitation/pull-down with RPtag (large) resin; assay type: binding, Thermoanaerobacter tengcongensis; details: 7 sequential pulldowns, 6 M guanidine hydrochloride washes
Experimental: The disclosed proteins and peptides were used in precipitation/pull-down assays. Specifically, rhodamine was tagged with the RPtag(small) Nd8Cd4 peptide and RPtag(large) was immobilized on a resin, as described above.
Briefly, 100 μL 1000 nM rhodamine labeled RPtag(small) peptide was incubated with 2.5 uL wet settled RPtag (large) resin generated as (as described above) in phosphate buffered saline (PBS; Gibco)+1% BSA+0.005% Tween 20 at 4° C. for 60 min with continuous orbital shaking. Samples were then washed 3× with 500 μL of the same buffer with no peptide to remove unbound peptide. Bound RPtag(small) peptides were then eluted with 100 μL 100 mM glycine pH 1.5+0.005% Tween20, and the pH raised by adding 1 μL 1 M borate pH 10.0. The amount eluted was calculated from the blank subtracted fluorescence of the elution versus the load. After each elution, resin was washed once with 500 μL 6M GdnHCl and once with 500 μL phosphate buffered saline (Gibco)+1% BSA+0.005% Tween 20, before repeating the assay.
Sequential precipitation/pulldown trials were performed with the rhodamine labelled RPtag(small) Nd8Cd4 peptide, and the RPtag(large)-resin. After binding and pull-down, the rhodamine-peptide was eluted in 100 mM glycine pH 1.5, the column was washed with water and 6 M guanidine hydrochloride, and then re-equilibrated with buffer (50 mM Tris pH 8.0, 10 mM EDTA). […]

[4] = 100 mM Tris pH 8.0, 0.005% Tween 20, No Additive

KIANFIPAELKLITKANVQ [Nd2, p5a, e18a, KIANFIPAELKLITKANVQ]
Kd [1, 4]: 0.037 nM
Kd ([1]; BME (10%)): 6.7 nM
Kd ([1]; CaCl2 (3M)): 150 nM
Kd ([1]; DMSO (20%)): 0.023 nM
Kd ([1]; DTT (100 mM)): 0.073 nM
Kd ([1]; EtOH (20%)): 0.1 nM
Kd ([1]; Gdn-HCl (6M)): > 10000 nM
Kd ([1]; KCl (3M)): 0.011 nM
Kd ([1]; MeOH (20%)): 0.056 nM
Kd ([1]; MgCl2 (3M)): 350 nM
Kd ([1]; MnSO4 (10 mM)): 22 nM
Kd ([1]; NH4SO4 (3M)): 44 nM
Kd ([1]; NaCl (3M)): < 0.001 nM
Kd ([1]; NiCl2 (100 mM)): 2.2 nM
Kd ([1]; PG (50%)): 49 nM
Kd ([1]; SDS (2%)): > 10000 nM
Kd ([1]; TritonX-100 (2%)): 0.046 nM
Kd ([1]; Tween20 (2%)): 4.7 nM
Kd ([1]; acetone (20%)): 0.019 nM
Kd ([1]; glycerol (20%)): < 0.001 nM
Kd ([1]; imidazole (3M)): > 10000 nM
Kd ([1]; ribose (3M)): < 0.001 nM
Kd ([1]; sorbitol (3M)): < 0.001 nM
Kd ([1]; urea (8M)): > 10000 nM
disruption of RPtag(large) binding to PDGF-β N-terminal peptide [2]: could be disrupted

PAELKLITK [Nd8, Cd4, PAELKLITK]
Kd [1, 4]: 14 nM
increased affinity with kosmotropic salts NaCl and KCl ([1]; 3M salt versus no additive): > 100 fold
Kd ([1]; BME (10%)): 740 nM
Kd ([1]; CaCl2 (3M)): > 10000 nM
Kd ([1]; DMSO (20%)): 140 nM
Kd ([1]; DTT (100 mM)): 33 nM
Kd ([1]; EtOH (20%)): 733 nM
Kd ([1]; Gdn-HCl (6M)): > 10000 nM
Kd ([1]; KCl (3M)): 0.066 nM
Kd ([1]; MeOH (20%)): 34 nM
Kd ([1]; MgCl2 (3M)): 240 nM
Kd ([1]; MnSO4 (10 mM)): 160 nM
Kd ([1]; NH4SO4 (3M)): 2.8 nM
Kd ([1]; NaCl (3M)): 0.15 nM
Kd ([1]; NiCl2 (100 mM)): 42 nM
Kd ([1]; PG (50%)): 4600 nM
Kd ([1]; SDS (2%)): > 10000 nM
Kd ([1]; TritonX-100 (2%)): 180 nM
Kd ([1]; Tween20 (2%)): 45 nM
Kd ([1]; acetone (20%)): 22 nM
Kd ([1]; glycerol (20%)): 27 nM
Kd ([1]; imidazole (3M)): > 10000 nM
Kd ([1]; ribose (3M)): 42 nM
Kd ([1]; sorbitol (3M)): 16 nM
Kd ([1]; urea (8M)): > 10000 nM
binding capacity over sequential pulldowns [3]: little to no loss of binding capacity
